Results on 21 molecules are retold here after US12193465B2, “Materials and methods for extending shelf-life of foods” (JP Laboratories, Inc., priority 2021, dated 2025).

A short description of test [1]: General shelf-life extension of foods (spoilage criteria of Example 9). To be noted: for Effectiveness for controlling one or more spoilage criteria: variety of foods. On the procedure: All studies were conducted at a room temperature of about 25° C. To determine the effectiveness of a shelf-life extender, a control sample which was untreated with any shelf-life extenders, was tested identical to the test samples. […] All studies in those Examples of Tables 1-6 were conducted in closed plastic or glass containers. Containers, such as plastic containers, without or with lids having holes can be used if it is advantageous to let excess moisture escape or to prevent condensation of moisture released by some produce.
Food exposed to preservatives or by a sachet was placed in typically polystyrene or acrylic containers depending upon the size and number of food items. Glass jars and bottles were also used. The containers were snap-closed or with a lid. The containers were purchased mainly from Amazon or Webstaurant.com store. When needed, plastic containers with holes or without lids were used.
For controlled exposure and a constant supply of a preservative to foods, sachets containing one or more drops of preservatives were used. Sachets were made by placing an appropriate amount of a preservative in a plastic bag containing a piece of paper and heat sealing the bag. The sachet bag materials used were Tyvek® for solid preservative, polyethylene, polyester and high barrier multilayer films were used for liquid preservatives. These bags were sealed with a heat sealer. The sachet was typically applied on one side of the container containing food.
A piece of paper napkin was taped inside a 100 microns thick polyethylene or polyester Ziploc bag. The size of the bag varied from ˜20 cm×30 cm to ˜60 cm×90 cm depended on the sample with sandwich bags up to gallon bags being exemplary. The paper napkin was wetted with 0.1-0.5 ml of a preservative or a mixture of preservatives. A tray of aluminum, stainless steel or glass containing the foods was placed inside the plastic (polyethylene, polyester and multilayer-laminated) bag and almost closed by locking the Ziploc. Air was blown with an air blower from the unclosed end until the bag was fully blown and then quickly closed tightly by locking the remaining Ziploc. If a preservative was a sublimable solid, it was placed in a petri dish and then placed inside the bag in the tray before blowing air. The exposure time was varied from five minutes to a day depending upon the food. […] The assembly was shaken periodically. After the predetermined time, the tray containing produce was removed from the bag, allowed to de-gas for 10-30 minutes in air and the produce was then placed in an appropriately sized container. Glass and stainless steel containers with lids were also often used.
A solution of one or more preservatives was prepared in a large (e.g., 2-10 liter) glass beaker or a jar. A sack containing the food was prepared by placing the food in a plastic mesh bag. The sack was placed in the solution of the preservative. A smaller glass beaker containing proper amount of water was place over the package to keep the sack soaked in the solution of the preservative during the treatment. The solution was stirred either with a plastic spatula or with a magnet over a magnetic stirrer. After treatment, the mesh sack was removed, the produce was washed in a tray with running water, strained and air dried at 30° C. in an air blowing oven for about 5-10 minutes, while shaking the tray or turning the food periodically followed by placing the sample in an appropriate container.
The food was placed in mesh trays and sprayed with an aqueous solution (1-10%) of a preservative while shaking the tray or turning the food. The solution was allowed to drain from the tray and the food was air dried in an air blowing oven at 30° C. for about 5-10 minutes, while shaking the tray or turning food periodically followed by placing the sample in an appropriate container.

Test [2] can be described thus: Curdling / cream / solidification of milk. The conditions noted are these: for Curdling: raw cow milk and raw goat milk; for Curdling of milk: pasteurized whole and fat-free milk. The source says: (§1) Most of the foods changed color or texture.
A further test has as its system fungus. Kind of test: Fungus growth on treated foods stored in closed containers at room temperature. The conditions noted are these: for Spoilage Time - Sample: Fungus.
Excerpt: as §1
Glass jars and bottles were also used. The containers were snap-closed or with a lid.
These bags were sealed with a heat sealer.
The assembly was shaken periodically.

Turning to `CC12CCC(CC1=O)C2(C)C` (racemic) [(±)-camphor], in test [1], the “Shelf-life of flowery vegetables” value is given as “extended shelf-life”.

On to `COc1ccccc1B(O)O` [2-methoxyphenylboronic acid], for which the Curdling result in test [2] was “delayed curdling”. Further, the “Effectiveness in extending freshness of cold press fresh juices” value with fungus is “effective”.

In the case of `Cc1ccc2cccc(O)c2n1` [2-methyl-8-quinolinol], the “Effectiveness for controlling one or more spoilage criteria” value in test [1] is on record as “effective to a greater or lesser extent”. Consider `Cc1ccccc1B(O)O` [2-methylphenylboronic acid], for which, in test [2], the Curdling of milk result was “delayed curdling”. For `CC1CCCCC1=O` (stereo not shown) [2MC, 2-Methylcyclohexanone], in test [1], the “Shelf-life of flowery vegetables” value is listed as “extended shelf-life” and the “Effectiveness for controlling one or more spoilage criteria” value is reported as “effective to a greater or lesser extent”. In the test on fungus (strawberries, raspberries, blackberries and lychee), the Fungus growth result was “either prevented or significantly delayed”.

For `Cc1cc(C)cc(B(O)O)c1` [3,5-dimethylphenylboronic acid], in test [2], the Curdling of milk entry was “delayed curdling” and the Curdling result is given as “delayed curdling”. Besides, the “Effectiveness in extending freshness of cold press fresh juices” value in the test on fungus was “effective”. Take `CC(=O)CC(C)(C)O` [4-hydroxy-4-methyl-2-pentanone]: in test [1], the “Effectiveness for controlling one or more spoilage criteria” value is reported as “effective to a greater or lesser extent”. For `CC1CCC(=O)CC1` [4-methylcyclohexanone], in test [1], the “Shelf-life of flowery vegetables” value was “extended shelf-life” and the “Effectiveness for controlling one or more spoilage criteria” value is “effective to a greater or lesser extent”. As for `N.NC(=O)O` [ACB, Ammonium carbaminate], the “Spoilage Time - Sample (Fungus)” value in the test with fungus (Fresh, unshelled peanuts, Sachet, control 5 days) amounted to 45 days. Consider `O=C1CCCCCC1` [CH, Cycloheptanone], for which, in test [1], the “Shelf-life of flowery vegetables” value is given as “extended shelf-life” and the “Effectiveness for controlling one or more spoilage criteria” value is on record as “effective to a greater or lesser extent”. Also, in the test on fungus (Example 91, Blueberry, Sachet, control 5 days), the “Spoilage Time - Sample” value is recorded as 67 days. For `O=C1CCCC1` [CP, Cyclopentanone], in test [1], the “Shelf-life of flowery vegetables” value is listed as “extended shelf-life” and the “Effectiveness for controlling one or more spoilage criteria” value is “effective to a greater or lesser extent”. Also, in the test with fungus (Example 115, Strawberry, Sachet, control 2 days), the “Spoilage Time - Sample” value was determined as 5 days.

On to `CC1=CCCC1` [MCP, 1-Methylcyclopentene], for which, in test [1], the “Shelf-life of flowery vegetables” value was “extended shelf-life” and the “Effectiveness for controlling one or more spoilage criteria” value is reported as “effective to a greater or lesser extent”. Also, in test [1] (peanuts), the “Shelf-life of shelled and unshelled peanuts” value was “extended”. Turning to `c1ccc(COCc2ccccc2)cc1` [benzyl ether, Benzyl Ether], the “Effectiveness for controlling one or more spoilage criteria” value in test [1] is “effective to a greater or lesser extent”. In the test with fungus (Example 146, ginger, pre-exposed to vapor, control 12 days), this molecule returned a Fungus growth greater than 37 days. In addition, the “Spoilage Time - Sample (Fungus)” value with fungus (Ginger, 1 hr P-E, control 12 days) stood at 37 days. Regarding `S=C=NCc1ccccc1` [benzyl isothiocyanate], the Curdling result in test [2] is “delayed curdling”.

As to `OB(O)O` [boric acid], in test [2], the Curdling of milk entry was “delayed curdling”. Take `O=c1ccc2ccccc2o1` [coumarin]: in test [1], the “Effectiveness for controlling one or more spoilage criteria” value is “effective to a greater or lesser extent”. Still for that read-out and setting: as for `COC(=O)CC(=O)OC` [dimethyl malonate], the entry is “effective to a greater or lesser extent”. As to `S` [hydrogen sulfide, Hydrogen sulfide], the Fungus growth in the test with fungus (Example 159, snow peas, Himalayan salt sachet, control 6 days) is greater than 11 days. Besides, the “Spoilage Time - Sample (Fungus)” value turned out to be 11 days in the test with fungus (Snow peas, Sachet, control 6 days (Example 159)) and 15 days in the test on fungus (Snow peas, Sachet, control 11 days (Example 160)). Regarding `COC(=O)C1CCCC1=O` (stereo not shown) [methyl cyclopentanone-2-carboxylate], in test [1], the “Effectiveness for controlling one or more spoilage criteria” value is “effective to a greater or lesser extent”. For the molecule `Cc1ccc(N=C=S)cc1` [p-tolyl isothiocyanate], the Curdling entry in test [2] is on record as “delayed curdling”. For `Oc1cccc(O)c1` [resorcinol], the “Effectiveness for controlling one or more spoilage criteria” value in test [1] was “effective to a greater or lesser extent”.
